Results as given in patent US20120135089A1, “E3 LIGASE INHIBITORS” (priority 2009, published 2012).
Several values for one entry are separate records, joined by “and”; a condition that tells them apart may be missing. Equal values may be shown once. Read-outs that look alike come from different tables or passages of the source.

Columns and labels:
[1] = molecular target: T1, Mdm2-luciferase fusion protein (Homo sapiens, UniProt Q00987); experiment: cell-based Mdm2 auto-ubiquitination luminescence assay, Mdm2-luciferase cell line; conditions: for luminescence of the Mdm2-luciferase cell line: 384-well format; for EC50: 2 hours treatment
T1 construct: Using full-length Mdm2 allowed for the presence of all domains of Mdm2; expressed in transfected cells
Method: (§1) Cells were plated in 384-well format and treated with MG132 (2 hours) or cycloheximide (30 minutes). Steadylite luminescence buffer (PerkinElmer) was added and the relative luminescence levels determined on a Victor3 Plate Reader. Each graph represents the median of 5 replicates normalized to a no treatment control, and one standard deviation is shown. […] The graphs and EC50 values were determined using Graphpad PRISM®. […] U2OS, RKO, and HCT116 cells (p53 wild-type) were incubated with 5 μg/ml (14 μM) of MEL23, 5 μg/ml (15 μM) of MEL24, or 10 μM of MG132 for 6 hours. Cells were lysed and analyzed by Western blotting using anti-Mdm2, anti-p53, and anti-eIF4E antibodies. NT indicates a no treatment control. […] MCF7 cells (p53 wild-type) were incubated with 30 μg/ml (51 μM) etoposide alone or in combination with 50 μM AlIn or 5 μg/ml (14 μM) MEL23, or 5 μg/ml (15 μM) MEL24 for 16 hours. Cells were lysed and analyzed by Western blotting using anti-MDMX and anti-actin antibodies.
The Mdm2-luciferase cell line was seeded at 7,500 cells per well, in 384-well white plates (PerkinElmer, Waltham, Mass., Cat. No. 6007688), in 27 μl of media (DMEM with FBS and P/S). Assay plates with cells were incubated at 37° C. overnight to allow cells to adhere. After 24 hours, 2 μl from the ‘mother’ plate (4 mg/ml) was transferred to a ‘daughter plate’ containing 148 μl media in order to dilute the compound 1:75. Next, 3 μl from each well of the ‘daughter plates’ was added to triplicate assay plates for a final concentration of 5.33 μg/ml. Assay plates were incubated at 37° C. for 2 hours. Then the cells were lysed with the addition of 30 μl of luminescence buffer (PerkinElmer, Cat. No. 6016989), and the plates were incubated at room temperature for 30 minutes before being analyzed on a Victor3 Plate Reader (PerkinElmer) for luminescence. […] All repurchased compounds were tested in a 2-fold dilution series via the same protocol as the primary screening. All transfers were conducted using a BioMek (Beckman Coulter, Fullerton, Calif.). […] This was determined by comparing the negative control, no treatment, to the positive control, 10 μM MG132.
To identify Mdm2 E3 ligase inhibitors, a high-throughput cellular assay to measure changes in Mdm2 auto-ubiquitination and degradation was designed. This assay took advantage of the fact that Mdm2 can regulate itself in cells through ubiquitination and degradation (8). Two fusion proteins were constructed for the assay: (a) a wild-type Mdm2-luciferase fusion protein, which can auto-ubiquitinate and thereby target itself for degradation; and (b) a mutant Mdm2(C464A)-luciferase fusion protein. Both fusion proteins were constructed with luciferase N-terminal to Mdm2. The C464A mutation disrupts a metal binding site in the RING domain, thereby preventing Mdm2 E3 ligase activity (8). Small molecules that increase the luminescence of the Mdm2-luciferase fusion protein without increasing the luminescence of the Mdm2(C464A)-luciferase fusion protein are likely inhibiting Mdm2 E3 ligase activity or the proteasomal degradation of Mdm2. Alternatively, small molecules that increase the luminescence of both fusion proteins are likely affecting transcription, translation, or have a general cellular impact that is not dependent on the E3 ligase activity of Mdm2 or proteasomal degradation.

Mdm2 and p53 levels = experiment: Western blot of Mdm2 and p53 protein levels in cell lines; format: cell-based, human; conditions: 6 hours; for Mdm2 and p53 levels: U2OS, RKO, HCT116 (p53 wild-type), 5 μg/ml; for p53 levels in RKO and RKO-E6 cells: isogenic RKO and RKO-E6 (HPV-E6) cells; for levels of endogenous and ectopically expressed Mdm2: p53-null H1299 cells
Method: as §1
H1229 cells were transfected with Mdm2-Flag or remained untransfected. Cells were treated with 5 μg/ml (14 μM) MEL23, 5 μg/ml (15 μM) MEL24, 10 μM MG132, or 1 μg/ml of doxorubicin for 6 hours. Cells were lysed and analyzed by Western blotting using anti-Mdm2 and anti-actin antibodies. The lower band indicated with a star seen with the Mdm2 antibody is a non-specific band. NT indicates a no treatment control. […] RKO and RK0-E6 cells were treated with 5 μg/ml (14 μM) MEL23, 5 μg/ml (15 μM) MEL24, 10 μM MG132, 0.5 μg/ml doxorubicin, 0.5 μg/ml camptothecin or 25 μg/ml Etoposide for 6 hours. Cells were lysed and analyzed by Western blotting using anti-Mdm2, anti-p53, and anti-actin antibodies. The lower band indicated with a star seen with the anti-Mdm2 antibody is a non-specific band. […] RKO cells were treated with 5 μg/ml (14 μM) MEL23, 5 μg/ml (15 μM) MEL24, 10 μM MG132 or 2 μg/ml doxorubicin for 6 hours. Cells were lysed and analyzed by Western blotting using anti-Mdm2, anti-p53, anti-phospho-Ser15 p53, and anti-eiF4E antibodies.
Cells were seeded and treated with the indicated compound(s). Cells were lysed after each time point in a buffer of 50 mM TrisHCl pH 7.5, 200 mM NaCl, 0.5% NP-40, and 1 complete mini EDTA-free protease inhibitor cocktail tablet per 10 mL of buffer (Roche, Cat. No. 8360170). Protein content was quantified using a Biorad protein assay reagent (Bio-Rad Laboratories, Hercules, Calif., Cat. No. 500-0006). SDS sample buffer was added to the samples, and the mixture was boiled for 5 minutes. Equal amounts of protein were resolved on a 1D SDS-PAGE gel. Following separation proteins were transferred to nitrocellulose membrane, blocked with 5% milk, and then incubated with primary antibody overnight at 4° C. The membrane was incubated with secondary-HRP antibody for 45 minutes at room temperature and developed with SuperSignal West Pico Substrate (Pierce, Rockford, Ill., Cat. No. 34080).
Cells were lysed and analyzed by Western blotting using anti-Mdm2, anti-p53, and anti-actin antibodies. The lower band seen with the Mdm2 antibody is a non-specific band. NT indicates no treatment control.
Referring now to FIG. 28e, endogenous Mdm2 and p53 protein levels with MEL17 treatment are shown. Briefly, U2OS, RKO, and HCT116 cells (p53 wild-type) were incubated with 5 μg/ml of MEL17 or 10 μM of MG132 for 6 hours. Cells were lysed and analyzed by Western blotting using anti-Mdm2, anti-p53, and anti-actin antibodies. The lower band seen with the Mdm2 antibody is a non-specific band.

T1 sequence (Q00987 whole entry, the tested form may be a part): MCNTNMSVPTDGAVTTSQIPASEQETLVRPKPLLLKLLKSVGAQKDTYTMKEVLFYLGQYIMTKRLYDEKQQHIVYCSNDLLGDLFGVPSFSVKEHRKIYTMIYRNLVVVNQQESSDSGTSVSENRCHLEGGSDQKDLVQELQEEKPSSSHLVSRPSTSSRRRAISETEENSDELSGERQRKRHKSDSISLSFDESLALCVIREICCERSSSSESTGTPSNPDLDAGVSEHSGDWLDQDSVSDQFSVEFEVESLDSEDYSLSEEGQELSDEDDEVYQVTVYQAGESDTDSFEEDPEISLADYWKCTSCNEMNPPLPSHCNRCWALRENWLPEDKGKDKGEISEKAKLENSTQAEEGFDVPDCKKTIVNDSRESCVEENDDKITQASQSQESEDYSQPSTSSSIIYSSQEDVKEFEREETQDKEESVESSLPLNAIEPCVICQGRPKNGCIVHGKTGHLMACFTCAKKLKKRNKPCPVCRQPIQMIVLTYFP

| Compound | luminescence of the Mdm2-luciferase cell line [1] | EC50 ([1]; EC50, Mdm2-luciferase cell line) | Mdm2 and p53 levels (Mdm2 and p53 levels) | p53 levels in RKO and RKO-E6 cells (Mdm2 and p53 levels) | levels of endogenous and ectopically expressed Mdm2 (Mdm2 and p53 levels) | EC50 ([1]; Mdm2-luciferase cell line, read-out: EC50 (converted)) |
| --- | --- | --- | --- | --- | --- | --- |
| CCCCn1c(=O)[nH]c(O)c(C2NCCc3c2[nH]c2ccccc32)c1=O (stereo not shown) [MEL23] | increased the luminescence of the Mdm2-luciferase cell line to a similar level as with MG132 treatment | 7.62 µM and 7.5 µM | increased | only increased levels of p53 in RKO cells | increased after treatment | – |
| Cn1c(O)c(C2NCCc3c2[nH]c2ccccc32)c(=O)n(C)c1=O (stereo not shown) [MEL24] | increased the luminescence of the Mdm2-luciferase cell line to a similar level as with MG132 treatment | – | increased | only increased levels of p53 in RKO cells | increased after treatment | 9.19 µM and 9.2 µM |
